From patent US20240140991A1, “ANTIBIOTIC NATURAL PRODUCT ANALOGUES” (THE QUEEN'S UNIVERSITY OF BELFAST, priority 2021, published 2024) come the findings set out here.

Values after ≈ are worked out from the molar mass of the structure shown. Starred links: 1 amine or outer side, 2 acyl side, 3 side chain; linkers in the order of their positions; H or OH if unused. Non-standard residues stand in square brackets, D forms with d. Residues, ends and D or L forms follow the SMILES beside them. *: point of attachment. X1 = C[C@@H](N=[N+]=[N-])[C@H](N[*:1])C(=O)[*:2]; Octanoyl(7-Me) = CC(C)CCCCCC(=O)*; dOrn = NCCC[C@@H](N)C(=O)O; Octanoyl = CCCCCCCC(=O)*; Orn = NCCC[C@H](N)C(=O)O; Dap = NC[C@H](N)C(=O)O; Alloc = C=CCOC(=O)*

This assay has as its system Escherichia coli ATCC 25922. Type of assay: cell-based. The settings on record: ATCC 25922. The gist of the method: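 Broth microdilution in MHB per CLSI; inoculum 2×10^5 CFU mL^−1 from log-phase TSB cultures at OD600 0.5. Plates incubated 16 hours at 37° C with shaking at 220 rpm. MIC is the lowest concentration preventing visible growth.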

`CC[C@H](C)[C@H](NC(=O)[C@@H](NC(=O)[C@H](Cc1c[nH]c2ccccc12)NC(=O)[C@@H](CCCN)NC(=O)CNC(=O)[C@H](CCCN)NC(=O)[C@@H](CCCN)NC(=O)[C@@H](Cc1c[nH]c2ccccc12)NC(=O)[C@@H](Cc1ccc(O)cc1)NC(=O)[C@@H](CO)NC(=O)CCCCCC(C)C)[C@@H](C)N=[N+]=[N-])C(=O)N[C@@H](CC(N)=O)C(=O)NCC(=O)NCC(N)=O` [MeDap(N3)9-CONH2] ({Octanoyl(7-Me)}-[dS][dY][dW][dOrn][Orn]G[dOrn]W[X1]INGG-NH2): the “Minimum inhibitory concentration (MIC)” value came to 2 µg/mL (≈ 1.21 µM). Under `CC[C@H](C)[C@H](NC(=O)[C@H](CCSC)NC(=O)[C@H](Cc1c[nH]c2ccccc12)NC(=O)[C@@H](CCCN)NC(=O)CNC(=O)[C@H](CCCN)NC(=O)[C@@H](CCCN)NC(=O)[C@@H](Cc1c[nH]c2ccccc12)NC(=O)[C@@H](Cc1ccc(O)cc1)NC(=O)[C@@H](CO)NC(=O)CCCCCC(C)C)C(=O)N[C@@H](CC(N)=O)C(=O)NCC(=O)NCC(N)=O` [Met9-CONH2] ({Octanoyl(7-Me)}-[dS][dY][dW][dOrn][Orn]G[dOrn]WMINGG-NH2) stands 2 µg/mL (≈ 1.21 µM); under `CC[C@H](C)[C@H](NC(=O)[C@H](Cc1ccccc1)NC(=O)[C@H](Cc1c[nH]c2ccccc12)NC(=O)[C@@H](CCCN)NC(=O)CNC(=O)[C@H](CCCN)NC(=O)[C@@H](CCCN)NC(=O)[C@@H](Cc1c[nH]c2ccccc12)NC(=O)[C@@H](Cc1ccc(O)cc1)NC(=O)[C@@H](CO)NC(=O)CCCCCC(C)C)C(=O)N[C@@H](CC(N)=O)C(=O)NCC(=O)NCC(N)=O` [Phe9-CONH2] ({Octanoyl(7-Me)}-[dS][dY][dW][dOrn][Orn]G[dOrn]WFINGG-NH2), 2 µg/mL (≈ 1.2 µM). For the compound `CC[C@H](C)[C@H](NC(=O)[C@H](CO)NC(=O)[C@H](Cc1c[nH]c2ccccc12)NC(=O)[C@@H](CCCN)NC(=O)CNC(=O)[C@H](CCCN)NC(=O)[C@@H](CCCN)NC(=O)[C@@H](Cc1c[nH]c2ccccc12)NC(=O)[C@@H](Cc1ccc(O)cc1)NC(=O)[C@@H](CO)NC(=O)CCCCCC(C)C)C(=O)N[C@@H](CC(N)=O)C(=O)NCC(=O)NCC(N)=O` [Ser9-CONH2] ({Octanoyl(7-Me)}-[dS][dY][dW][dOrn][Orn]G[dOrn]WSINGG-NH2), the “Minimum inhibitory concentration (MIC)” value was determined as 2 µg/mL (≈ 1.24 µM).

As to `CC[C@H](C)[C@H](NC(=O)[C@@H](NC(=O)[C@H](Cc1c[nH]c2ccccc12)NC(=O)[C@@H](CCCN)NC(=O)CNC(=O)[C@H](CCCN)NC(=O)[C@@H](CCCN)NC(=O)[C@@H](Cc1c[nH]c2ccccc12)NC(=O)[C@@H](Cc1ccc(O)cc1)NC(=O)[C@@H](CO)NC(=O)CCCCCC(C)C)[C@@H](C)O)C(=O)N[C@@H](CC(N)=O)C(=O)NCC(=O)NCC(N)=O` [Thr9-CONH2] ({Octanoyl(7-Me)}-[dS][dY][dW][dOrn][Orn]G[dOrn]WTINGG-NH2), the “Minimum inhibitory concentration (MIC)” value was in the range of 2 to 4 µg/mL. Under `CC[C@H](C)[C@H](NC(=O)[C@@H](NC(=O)[C@H](Cc1c[nH]c2ccccc12)NC(=O)[C@@H](CCCN)NC(=O)CNC(=O)[C@H](CCCN)NC(=O)[C@@H](CCCN)NC(=O)[C@@H](Cc1c[nH]c2ccccc12)NC(=O)[C@@H](Cc1ccc(O)cc1)NC(=O)[C@@H](CO)NC(=O)CCCCCC(C)C)[C@@H](C)O)C(=O)N[C@@H](CC(N)=O)C(=O)NCC(=O)NCC(N)=O` [Thr (linear laterocidine)] ({Octanoyl(7-Me)}-[dS][dY][dW][dOrn][Orn]G[dOrn]WTINGG-NH2; N-terminus and C-terminus assumed) stands 2 µg/mL (≈ 1.23 µM); under `CC[C@H](C)[C@H](NC(=O)[C@H](Cc1c[nH]c2ccccc12)NC(=O)[C@H](Cc1c[nH]c2ccccc12)NC(=O)[C@@H](CCCN)NC(=O)CNC(=O)[C@H](CCCN)NC(=O)[C@@H](CCCN)NC(=O)[C@@H](Cc1c[nH]c2ccccc12)NC(=O)[C@@H](Cc1ccc(O)cc1)NC(=O)[C@@H](CO)NC(=O)CCCCCC(C)C)C(=O)N[C@@H](CC(N)=O)C(=O)NCC(=O)NCC(N)=O` [Trp9-CONH2] ({Octanoyl(7-Me)}-[dS][dY][dW][dOrn][Orn]G[dOrn]WWINGG-NH2), 4 µg/mL (≈ 2.34 µM); under `CC[C@H](C)[C@H](NC(=O)[C@@H](NC(=O)[C@H](Cc1c[nH]c2ccccc12)NC(=O)[C@@H](CCCN)NC(=O)CNC(=O)[C@H](CCCN)NC(=O)[C@@H](CCCN)NC(=O)[C@@H](Cc1c[nH]c2ccccc12)NC(=O)[C@@H](Cc1ccc(O)cc1)NC(=O)[C@@H](CO)NC(=O)CCCCCC(C)C)[C@@H](C)O)C(=O)N[C@@H](CC(N)=O)C(N)=O` [ΔG12-G13, FA-sywoOGoWTIN-CONH2] ({Octanoyl(7-Me)}-[dS][dY][dW][dOrn][Orn]G[dOrn]WTIN-NH2), 4 µg/mL (≈ 2.65 µM).

As for `C=CCOC(=O)NC[C@H](NC(=O)[C@H](Cc1c[nH]c2ccccc12)NC(=O)[C@@H](CCCN)NC(=O)CNC(=O)[C@H](CCCN)NC(=O)[C@@H](CCCN)NC(=O)[C@@H](Cc1c[nH]c2ccccc12)NC(=O)[C@@H](Cc1ccc(O)cc1)NC(=O)[C@@H](CO)NC(=O)CCCCCCC)C(=O)N[C@H](C(=O)N[C@@H](CC(N)=O)C(N)=O)[C@@H](C)CC` [ΔG12-G13-Dap(Alloc)9-C8] (Octanoyl-[dS][dY][dW][dOrn][Orn]G[dOrn]W[Dap](Alloc)IN-NH2), the “Minimum inhibitory concentration (MIC)” value came to 4 µg/mL (≈ 2.56 µM). Next, `C=CCOC(=O)NC[C@H](NC(=O)[C@H](Cc1c[nH]c2ccccc12)NC(=O)[C@@H](CCCN)NC(=O)CNC(=O)[C@H](CCCN)NC(=O)[C@@H](CCCN)NC(=O)[C@@H](Cc1c[nH]c2ccccc12)NC(=O)[C@@H](Cc1ccc(O)cc1)NC(=O)[C@@H](CO)NC(=O)CCCCCC(C)C)C(=O)N[C@H](C(=O)N[C@@H](CC(N)=O)C(N)=O)[C@@H](C)CC` [ΔG12-G13-Dap(Alloc)9-isoC9] ({Octanoyl(7-Me)}-[dS][dY][dW][dOrn][Orn]G[dOrn]W[Dap](Alloc)IN-NH2): 4 µg/mL (≈ 2.54 µM). Next, `CCCCCCCC(=O)N[C@H](CO)C(=O)N[C@H](Cc1ccc(O)cc1)C(=O)N[C@H](Cc1c[nH]c2ccccc12)C(=O)N[C@H](CCCN)C(=O)N[C@@H](CCCN)C(=O)NCC(=O)N[C@H](CCCN)C(=O)N[C@@H](Cc1c[nH]c2ccccc12)C(=O)N[C@@H](CO)C(=O)N[C@H](C(=O)N[C@@H](CC(N)=O)C(N)=O)[C@@H](C)CC` [ΔG12-G13-Ser9-C8] (Octanoyl-[dS][dY][dW][dOrn][Orn]G[dOrn]WSIN-NH2): 4 µg/mL (≈ 2.7 µM); `CC[C@H](C)[C@H](NC(=O)[C@H](CO)NC(=O)[C@H](Cc1c[nH]c2ccccc12)NC(=O)[C@@H](CCCN)NC(=O)CNC(=O)[C@H](CCCN)NC(=O)[C@@H](CCCN)NC(=O)[C@@H](Cc1c[nH]c2ccccc12)NC(=O)[C@@H](Cc1ccc(O)cc1)NC(=O)[C@@H](CO)NC(=O)CCCCCC(C)C)C(=O)N[C@@H](CC(N)=O)C(N)=O` [ΔG12-G13-Ser9-isoC9] ({Octanoyl(7-Me)}-[dS][dY][dW][dOrn][Orn]G[dOrn]WSIN-NH2): 4 µg/mL (≈ 2.68 µM).

Turning to `CC[C@H](C)[C@H](NC(=O)[C@@H](NC(=O)[C@H](Cc1c[nH]c2ccccc12)NC(=O)[C@@H](CCCN)NC(=O)CNC(=O)[C@H](CCCN)NC(=O)[C@@H](CCCN)NC(=O)[C@@H](Cc1c[nH]c2ccccc12)NC(=O)[C@@H](Cc1ccc(O)cc1)NC(=O)[C@@H](CO)NC(=O)CCCCCC(C)C)[C@@H](C)O)C(=O)N[C@@H](CC(N)=O)C(=O)NCC(N)=O` [ΔG13, FA-sywoOGoWTING-CONH2] ({Octanoyl(7-Me)}-[dS][dY][dW][dOrn][Orn]G[dOrn]WTING-NH2), the “Minimum inhibitory concentration (MIC)” value is 2 µg/mL (≈ 1.28 µM).
